Data reported in article PMC12528448, “Resistance to CDK7 inhibitors directed by acquired mutation of a conserved residue in cancer cells” (The EMBO Journal, 2025).
Values joined by “and” are separate entries in the source; they are usually repeats but may differ in a detail not shown here. Equal entries are not always repeated. Where two headings read alike, the source gives them in different places.

Key:
Assay type in all cases: cell-based, human
[1] = system: 22Rv1 homozygous CDK7-D97N CL3 cells; test: IncuCyte confluency growth, 22Rv1 homozygous CDK7-D97N CL3; settings: for % Confluency: 1.25µM Samuraciclib
Protocol: (§1) To determine the IC50 of drug treatments on growth, cells were seeded in 96-well culture plates. Two days after seeding, the cells were treated with increasing concentrations of drugs and incubated for 4 days. Cell number was determined using the SRB assay (Skehan et al, [1990]), and IC50 values were calculated using non-linear regression curve fitting in GraphPad Prism v10. For all other growth experiments, cells were seeded into 96-well plates, and appropriate drugs were added 2 days after seeding. Cells were then incubated in an IncuCyte Zoom live-cell imager, with cell confluency measured every 6 h. Cell doubling times were determined by non-linear curve fitting (exponential growth equation) in GraphPad Prism v10.

22Rv1 cells [2] = test: Growth assay (SRB), 22Rv1; settings: for IC50: read-out: IC50, growth inhibition
Protocol: as §1

22Rv1 cells [3] = test: IncuCyte confluency growth, 22Rv1; settings: 1.25µM Samuraciclib
Protocol: as §1

22Rv1-SamR cells = test: IncuCyte confluency growth, 22Rv1-SamR; settings: 22Rv1-SamR; for % Confluency: 1.25µM Samuraciclib
Protocol: as §1

MCF7 cells = test: Growth assay (SRB), MCF7; settings: for % Growth: biological reps
How it was run: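 SRB: dosing at day 2 post-seed, rising concentrations, 4 d incubation, IC50 via non-linear fit. IncuCyte: drug at day 2, confluency read q6h, doubling time from exponential curve fit.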

SMILES: CC(C)c1cnn2c(NCc3ccccc3)cc(NC[C@H]3CCNC[C@@H]3O)nc12 [Samuraciclib]
- % Confluency ([1]; CDK7D97N CL3, 0 hours): 11.15% and 16.69% and 15.87%
- % Confluency ([1]; CDK7D97N CL3, 6 hours): 12.67% and 19.64% and 18.89%
- % Confluency ([1]; CDK7D97N CL3, 12 hours): 14.00% and 21.38% and 20.49%
- % Confluency ([1]; CDK7D97N CL3, 18 hours): 14.90% and 23.74% and 22.71%
- % Confluency ([1]; CDK7D97N CL3, 24 hours): 16.23% and 26.69% and 25.53%
- % Confluency ([1]; CDK7D97N CL3, 30 hours): 17.78% and 29.17% and 27.88%
- % Confluency ([1]; CDK7D97N CL3, 36 hours): 18.86% and 30.89% and 29.55%
- % Confluency ([1]; CDK7D97N CL3, 42 hours): 19.43% and 32.04% and 30.87%
- % Confluency ([1]; CDK7D97N CL3, 48 hours): 20.15% and 33.30% and 32.45%
- % Confluency ([1]; CDK7D97N CL3, 54 hours): 21.35% and 35.23% and 34.41%
- % Confluency ([1]; CDK7D97N CL3, 60 hours): 22.64% and 37.22% and 36.36%
- % Confluency ([1]; CDK7D97N CL3, 66 hours): 23.89% and 39.05% and 38.37%
- % Confluency ([1]; CDK7D97N CL3, 72 hours): 25.25% and 40.82% and 40.29%
- % Confluency ([1]; CDK7D97N CL3, 78 hours): 26.70% and 42.56% and 42.42%
- % Confluency ([1]; CDK7D97N CL3, 84 hours): 28.04% and 44.37% and 44.58%
- % Confluency ([1]; CDK7D97N CL3, 90 hours): 29.44% and 46.55%
- % Confluency ([1]; CDK7D97N CL3, 96 hours): 30.80% and 48.80% and 48.76%
- % Confluency ([1]; CDK7D97N CL3, 114 hours): 35.00% and 54.89% and 54.85%
- % Confluency ([1]; CDK7D97N CL3, 120 hours): 36.47% and 56.68%
- % Confluency ([1]; CDK7D97N CL3, 126 hours): 38.04% and 58.51% and 58.53%
- % Confluency ([1]; CDK7D97N CL3, 132 hours): 39.56% and 60.46% and 60.48%
- % Confluency ([1]; CDK7D97N CL3, 138 hours): 41.00% and 62.13% and 62.12%
- % Confluency ([1]; CDK7D97N CL3, 144 hours): 42.51% and 63.49% and 63.85%
- Growth inhibition over time ([1]; 22Rv1 homozygous CDK7-D97N clone, IncuCyte confluency, samuraciclib at 1.35 µM): considerably less growth inhibited
- % Growth (22Rv1 cells [2]; 22Rv1, Log10 Conc. (nM) 0.09): 82.57% and 100.57%
- % Growth (22Rv1 cells [2]; 22Rv1, Log10 Conc. (nM) 0.69): 67.33% and 92.29%
- % Growth (22Rv1 cells [2]; 22Rv1, Log10 Conc. (nM) 1.29): 62.76% and 77.49%
- % Growth (22Rv1 cells [2]; 22Rv1, Log10 Conc. (nM) 1.89): 23.35% and 33.47%
- % Growth (22Rv1 cells [2]; 22Rv1, Log10 Conc. (nM) 2.49): 12.07% and 16.59%
- % Growth (22Rv1 cells [2]; 22Rv1, Log10 Conc. (nM) 3.10): -1.00% and 4.60%
- % Growth (22Rv1 cells [2]; 22Rv1, Log10 Conc. (nM) 3.70): -9.57% and -5.93%
- % Growth (22Rv1 cells [2]; 22Rv1, Log10 Conc. (nM) 4.30): -12.92% and -8.82%
- % Growth (22Rv1 cells [2]; 22Rv1, Log10 Conc. (nM) -0.52): 95.09% and 93.80%
- IC50 (22Rv1 cells [2]; 22Rv1, 4 days, SRB): 107 nM
- % Growth (22Rv1 cells [2]; 22Rv1, Log10 Conc. (nM) 0.09, 4 days, biological reps): 98.86% and 90.50% and 99.61%
- % Growth (22Rv1 cells [2]; 22Rv1, Log10 Conc. (nM) 0.69, 4 days, biological reps): 94.70% and 88.77% and 91.92%
- % Growth (22Rv1 cells [2]; 22Rv1, Log10 Conc. (nM) 1.29, 4 days, biological reps): 87.71% and 80.91% and 85.47%
- % Growth (22Rv1 cells [2]; 22Rv1, Log10 Conc. (nM) 1.89, 4 days, biological reps): 47.61% and 40.53% and 48.68%
- % Growth (22Rv1 cells [2]; 22Rv1, Log10 Conc. (nM) 2.49, 4 days, biological reps): 31.58% and 24.12% and 25.60%
- % Growth (22Rv1 cells [2]; 22Rv1, Log10 Conc. (nM) 3.10, 4 days, biological reps): 18.12% and 12.29% and 10.95%
- % Growth (22Rv1 cells [2]; 22Rv1, Log10 Conc. (nM) -0.52, 4 days, biological reps): 95.62% and 91.39% and 96.41%
- IC50 (22Rv1 cells [2]; Homo sapiens, 22Rv1, 22Rv1, Figure R1 experiment): 71.7 nM
- IC50 (22Rv1 cells [2]; Homo sapiens, 22Rv1, 96 h, 22Rv1, 4 days, SRB): 107 nM
- % Confluency (22Rv1 cells [3]; 22Rv1, 0 hours): 11.09% and 19.39% and 18.69%
- % Confluency (22Rv1 cells [3]; 22Rv1, 6 hours): 11.39% and 20.88% and 20.07%
- % Confluency (22Rv1 cells [3]; 22Rv1, 12 hours): 11.53% and 22.21% and 21.45%
- % Confluency (22Rv1 cells [3]; 22Rv1, 18 hours): 12.38% and 23.96% and 23.27%
- % Confluency (22Rv1 cells [3]; 22Rv1, 24 hours): 12.59% and 24.76% and 24.14%
- % Confluency (22Rv1 cells [3]; 22Rv1, 72 hours): 18.17% and 36.04% and 35.50%
- % Confluency (22Rv1 cells [3]; 22Rv1, 78 hours): 18.89% and 36.95% and 36.29%
- % Confluency (22Rv1 cells [3]; 22Rv1, 84 hours): 19.31% and 37.65% and 37.05%
- % Confluency (22Rv1 cells [3]; 22Rv1, 90 hours): 19.76% and 38.15% and 37.44%
- % Confluency (22Rv1 cells [3]; 22Rv1, 96 hours): 20.21% and 38.65% and 37.90%
- % Confluency (22Rv1 cells [3]; 22Rv1, 114 hours): 21.28% and 39.48% and 38.59%
- % Confluency (22Rv1 cells [3]; 22Rv1, 120 hours): 21.53% and 39.86% and 38.66%
- % Confluency (22Rv1 cells [3]; 22Rv1, 126 hours): 21.77% and 39.89% and 38.66%
- % Confluency (22Rv1 cells [3]; 22Rv1, 132 hours): 21.94% and 40.00% and 38.90%
- % Confluency (22Rv1 cells [3]; 22Rv1, 138 hours): 22.18% and 40.24% and 38.99%
- % Confluency (22Rv1 cells [3]; 22Rv1, 144 hours): 22.26% and 40.34% and 39.26%
- % Confluency (22Rv1-SamR cells; 0 hours): 9.95% and 14.33% and 14.57%
- % Confluency (22Rv1-SamR cells; 6 hours): 10.40% and 16.13% and 16.29%
- % Confluency (22Rv1-SamR cells; 12 hours): 11.65% and 17.66% and 17.87%
- % Confluency (22Rv1-SamR cells; 18 hours): 12.68% and 19.79% and 20.05%
- % Confluency (22Rv1-SamR cells; 24 hours): 14.19% and 22.35% and 22.55%
- % Confluency (22Rv1-SamR cells; 30 hours): 15.61% and 24.60% and 24.68%
- % Confluency (22Rv1-SamR cells; 36 hours): 16.94% and 26.20% and 26.26%
- % Confluency (22Rv1-SamR cells; 42 hours): 17.81% and 27.46% and 27.71%
- % Confluency (22Rv1-SamR cells; 48 hours): 18.38% and 28.92% and 29.43%
- % Confluency (22Rv1-SamR cells; 54 hours): 19.67% and 30.91% and 31.32%
- % Confluency (22Rv1-SamR cells; 60 hours): 20.82% and 32.87% and 33.32%
- % Confluency (22Rv1-SamR cells; 66 hours): 22.29% and 34.64% and 35.33%
- % Confluency (22Rv1-SamR cells; 72 hours): 23.74% and 36.43% and 37.12%
- % Confluency (22Rv1-SamR cells; 78 hours): 25.50% and 38.39% and 39.15%
- % Confluency (22Rv1-SamR cells; 84 hours): 27.27% and 40.40% and 41.13%
- % Confluency (22Rv1-SamR cells; 90 hours): 29.10% and 42.68% and 43.52%
- % Confluency (22Rv1-SamR cells; 96 hours): 31.07% and 45.25% and 45.93%
- % Confluency (22Rv1-SamR cells; 114 hours): 38.05% and 53.22% and 54.00%
- % Confluency (22Rv1-SamR cells; 120 hours): 40.50% and 56.05% and 56.55%
- % Confluency (22Rv1-SamR cells; 126 hours): 43.34% and 58.82% and 59.09%
- % Confluency (22Rv1-SamR cells; 132 hours): 46.08% and 61.31% and 61.57%
- % Confluency (22Rv1-SamR cells; 138 hours): 48.67% and 63.52% and 63.85%
- % Confluency (22Rv1-SamR cells; 144 hours): 51.40% and 65.10% and 65.55%
- Growth inhibition over time (22Rv1-SamR cells; IncuCyte confluency, samuraciclib at 1.35 µM): considerably less growth inhibited
- IC50 (MCF7 cells; Homo sapiens, 96 h, 4 days, SRB): 12.1 nM
- % Growth (MCF7 cells; Log10 Conc. (nM) 0.09, 4 days): 94.81% and 93.76% and 96.34% and 97.66%
- % Growth (MCF7 cells; Log10 Conc. (nM) 0.69, 4 days): 67.73% and 59.93% and 79.41% and 74.71%
- % Growth (MCF7 cells; Log10 Conc. (nM) 3.70, 4 days): -10.28% and -8.18% and -0.52% and -0.67%
- % Growth (MCF7 cells; Log10 Conc. (nM) 4.30, 4 days): -14.83% and -14.97% and -6.89% and -6.39%
- % Growth (MCF7 cells; Log10 Conc. (nM) -0.52, 4 days): 94.36% and 98.21% and 94.31% and 95.03%
